Patent publication US20240101552A1, “CARBONYL HETEROCYCLIC COMPOUND AND APPLICATION THEREOF” (SHANGHAI PHARMACEUTICALS HOLDING CO., LTD., priority 2020, published 2024)

Target: LANCL2 (Homo sapiens (Human), UniProt Q9NS86)
Assay: SPR (BIACORE S200) kinetic determination of LANCL2-small molecule interactions
Type: binding
Conditions: for Kd: immobilized LANCL2, 1:1 binding model, pH 6.5, 25° C.; for Rmax (RU): maximum binding force
Protocol: 1.1 Reagent Materials • Ligand: LANCL2 • Running buffer: 20 mM MES, 150 mM NaCl, 0.05% P20, pH 6.5, 1% DMSO
Injection conditions for small molecule compounds: a flow rate of 30 μL/min, a binding time of 60 s, a dissociation time of 300 s.
Running buffer: 20 mM MES, 150 mM NaCl, 0.05% P20, pH 6.5, 1% DMSO.
Sample chamber temperature: 25° C.; analysis temperature: 25° C.
Kinetic determination of LANCL2-small molecule interactions was performed. The kinetic parameters of small molecules BT-11 and L-1 to 60 (analytes) binding to LANCL2 (ligand) were determined using BIACORE S200. Data were generated in triplicate in a dose-dependent manner (5-8 titration points) and analyzed to determine binding models (Langmuir, conformational shifts, etc.), real-time association and dissociation constants, and equilibrium dissociation constants. SPR technology allows the validation of specific LANCL2-phytochemical interactions as well as an increased insight into the gold standard of binding mechanisms and rates. Experiments were performed on carboxymethyl polydextrose (CM5) sensor chips by amine-coupled covalent attachment of LANCL2. Data were analyzed with BIACORE S200T200 evaluation software (version 1), so as to determine affinity binding constants (KD) using a 1:1 binding model.
An optical technique for detecting molecular interactions, SPR, was used to measure the binding affinity between LANCL2 and a ligand thereof (compound to be tested). Purified recombinant LANCL2 protein was immobilized on a BIACORE sensor chip and small molecules were injected onto the protein surface using an equipment of microfluidic system. The change in total mass on the chip surface, corresponding to a small binding to the protein, was measured. […] The equilibrium dissociation constant (Kd) was often used to describe the affinity between a ligand and a protein, such as affinity degree of a ligand binding to a specific protein. Ligand-protein affinity was affected by non-covalent intermolecular interactions between two molecules, such as hydrogen bonding, electrostatic interactions, hydrophobic bonds and van der Waals forces. The steady-state affinity (Kd) for each interaction could be measured by plotting equilibrium binding levels against compound concentrations.

LANCL2, sequence (Q9NS86 whole entry, species assumed): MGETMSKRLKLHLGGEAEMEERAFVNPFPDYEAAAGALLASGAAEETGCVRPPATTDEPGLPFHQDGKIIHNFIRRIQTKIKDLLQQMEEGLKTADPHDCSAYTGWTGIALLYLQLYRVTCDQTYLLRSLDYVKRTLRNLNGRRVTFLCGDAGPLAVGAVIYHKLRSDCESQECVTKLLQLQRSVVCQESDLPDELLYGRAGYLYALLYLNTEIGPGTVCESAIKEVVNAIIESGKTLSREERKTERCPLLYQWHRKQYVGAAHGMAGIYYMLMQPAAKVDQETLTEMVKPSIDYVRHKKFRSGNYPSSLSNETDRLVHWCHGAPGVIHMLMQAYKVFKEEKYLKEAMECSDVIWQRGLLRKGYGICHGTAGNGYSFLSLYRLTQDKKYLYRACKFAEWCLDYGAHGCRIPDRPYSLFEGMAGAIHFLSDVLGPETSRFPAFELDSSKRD

Row | Kd [µM] | Rmax (RU) | SMILES | binding activity compared with positive reference compound BT-11
1 | 3.44 | 3.9 | O=C(c1cccc(-c2nc3ccccc3[nH]2)n1)N1CCC2(CC1)CCN(C(=O)c1cccc(-c3nc4ccccc4[nH]3)n1)CC2 [Embodiment L-9, (3,9-diazaspiro[5.5]undecane-3,9-diyl)bis((6-(1H-benzo[d]imidazol-2-yl)pyridin-2-yl)methanone)] | better binding activities than the positive reference compound BT-11
2 | 38.3 | 1.5 | O=C(Nc1ccccc1NC(=O)c1ccnc(N2CCOCC2)n1)c1ccnc(N2CCOCC2)n1 [Embodiment L-13, N,N′-(1,2-phenylene)bis(2-morpholinopyrimidine-4-carboxamide)] | 
3 | 127 | 5.2 | O=C(c1cccc(-c2nc3ccccc3[nH]2)n1)N1CC2CC1CN2C(=O)c1ccnc(N2CCOCC2)n1 [Embodiment L-18, (5-(6-(1H-benzo[d]imidazol-2-yl)picolinoyl)-2,5-diazabicyclo[2.2.1]heptan-2-yl)(2-morpholinopyrimidin-4-yl)methanone] | 
4 | 25.3 | 9.7 | O=C(NC1CCN(C(=O)c2cccc(-c3nc4ccccc4[nH]3)n2)CC1)c1ccnc(Nc2ccccc2)n1 [Embodiment L-19] | 
5 | 43.3 | 5.3 | O=C(NC1CCN(C(=O)c2cccc(-c3nc4ccccc4[nH]3)n2)CC1)C1CCCC(c2nc3ccccc3[nH]2)C1 [Embodiment L-20] | 
6 | 9.88 | 7.3 | O=C(NC1CCN(C(=O)c2cccc(-c3nc4ccccc4[nH]3)n2)CC1)c1ccnc(Nc2ccccn2)n1 [Embodiment L-21] | 
7 | 13.3 | 6.5 | O=C(c1cccc(-c2nc3ccccc3[nH]2)n1)N1CCC2(CC1)CCN(C(=O)c1ccnc(Nc3ccccc3)n1)CC2 [Embodiment L-27, (9-(6-(1H-benzo[d]imidazol-2-yl)picolinoyl)-3,9-diazaspiro[5.5]undecan-3-yl)(2-(phenylamino)pyrimidin-4-yl)methanone] | 
8 | 66.1 | 14.4 | CN1CCC2(CC1)CCN(c1ccc(NC(=O)C3CCN(C(=O)c4cccc(-c5nc6ccccc6[nH]5)n4)C3)cc1)CC2 [Embodiment L-35, 1-(6-(1H-benzo[d]imidazol-2-yl)picolinoyl)-N-(4-(9-methyl-3,9-diazaspiro[5.5]undecan-3-yl)phenyl)pyrrolidine-3-carboxamide] | 
9 | 13.2 | 12 | O=C(NC1CCN(C(=O)c2cccc(-c3cn4ccccc4n3)c2)CC1)c1ccnc(Nc2ccccc2)n1 [Embodiment L-42, N-(1-(3-(imidazo[1,2-a]pyridin-2-yl)benzoyl)piperidin-4-yl)-2-(phenylamino)pyrimidine-4-formamide] | 
10 | 30.4 | 10.6 | O=C(c1cccc(Nc2ccccc2)n1)N1CC2CN(C(=O)c3cccc(-c4nc5ccccc5[nH]4)n3)CC2C1 [Embodiment L-46, (5-(6-(1H-benzo[d]imidazol-2-yl)picolinoyl)hexahydropyrrolo[3,4-c]pyrrol-2(1H)-yl)(6-(phenylamino)pyridin-2-yl)methanone] | 
11 | 2.83 | 3.9 | O=C(NC1C2CN(C(=O)c3cccc(-c4nc5ccccc5[nH]4)n3)CC21)c1cccc(Nc2ccccn2)n1 [Embodiment L-52, N-(3-(6-(1H-benzo[d]imidazol-2-yl)picolinoyl)-3-azabicyclo[3.1.0]hexan-6-yl)-6-(pyridin-2-ylamino)picolinamide] | better binding activities than the positive reference compound BT-11
12 | 27.8 | 8.4 | O=C(c1ccnc(Nc2ccccn2)c1)N1CC2CN(C(=O)c3cccc(-c4cn5ccccc5n4)n3)CC2C1 [Embodiment L-54, (5-(6-(imidazo[1,2-a]pyridin-2-yl]picolinoyl)hexahydropyrrolo[3,4-c]pyrrol-2(1H)-yl)(2-(pyridin-2-ylamino)pyridin-4-yl)methanone] | 
13 | 8.02 | 8 | O=C(c1cccc(-c2nc3ccccc3[nH]2)n1)N1CCC(c2nc3ccccc3[nH]2)CC1 [Embodiment L-57, (4-(1H-benzo[d]imidazol-2-yl)piperidin-1-yl)(6-(1H-benzo[d]imidazol-2-yl)pyridin-2-yl)methanone] | 
14 | 21.5 | 3.3 | O=C(c1cccc(-c2nc3ccccc3[nH]2)n1)N1CCC2(CCCN(C(=O)c3cccc(-c4nc5ccccc5[nH]4)n3)C2)CC1 [Embodiment L-58, (2,9-diazaspiro[5.5]undecane-2,9-diyl)bis(6-(1H-benzo[d]imidazol-2-yl)pyridin-2-yl)methanone] | 
15 | 14.9 | 3.6 | O=C(c1cccc(-c2nc3ccccc3[nH]2)n1)N1CCC2(CC1)CCN(C(=O)c1cccc(-c3nc4ccccc4[nH]3)n1)C2 [Embodiment L-59, (2,8-diaza[4.5]decane-2,8-diyl)bis(6-(1H-benzo[d]imidazol-2-yl)pyridin-2-yl)methanone] | 
16 | 27.4 | 3.6 | O=C(c1ccc(-c2nc3ccccc3[nH]2)nc1)N1CCC2(CCN(C(=O)c3cccc(-c4nc5ccccc5[nH]4)n3)C2)C1 [Embodiment L-60, (7-(6-(1H-benzo[d]imidazol-2-yl)nicotinoyl)-2,7-diazaspiro[4.4]nonan-2-yl)(6-(1H-benzo[d]imidazol-2-yl)pyridin-2-yl)methanone] | 
17 | 29.3 | 5.7 | O=C(c1cccc(-c2nc3ccccc3[nH]2)n1)N1CCC2(CC1)CCN(C(=O)c1ccnc(Nc3ccccc3)n1)C2 [Embodiment L-62, (8-(6-(1H-benzo[d]imidazol-2-yl)picolinoyl)-2,8-diazaspiro[4.5]dec-2-yl)(2-(phenylamino)pyrimidin-4-yl)methanone] | 
18 | 53.5 | 7.6 | O=C(c1cccc(Nc2ccccc2)n1)N1CCCC2(CCN(C(=O)c3cccc(-c4nc5ccccc5[nH]4)n3)CC2)C1 [Embodiment L-63, (9-(6-(1H-benzo[d]imidazol-2-yl)picolinoyl)-2,9-diazaspiro[5.5]undecan-2-yl)(6-(phenylamino)pyridin-2-yl)methanone] | 
19 | 48.8 | 6.1 | O=C(c1cccc(-c2nc3ccccc3[nH]2)n1)N1CCC2(CCCN(C(=O)c3ccnc(Nc4ccccc4)n3)C2)CC1 [Embodiment L-64, (9-(6-(1H-benzo[d]imidazol-2-yl)picolinoyl)-2,9-diazaspiro[5.5]undecan-2-yl)(2-(phenylamino)pyrimidin-4-yl)methanone] | 
20 | 26 | 6.5 | O=C(c1cccc(Nc2ccccc2)n1)N1CCC2(CCN(C(=O)c3cccc(-c4nc5ccccc5[nH]4)n3)C2)C1 [Embodiment L-65, (7-(6-(1H-benzo[d]imidazol-2-yl)picolinoyl)-2,7-diazaspiro[4.4]non-2-yl)(6-(phenylamino)pyridin-2-yl)methanone] | 
21 | 31.8 | 7.2 | O=C(c1cccc(-c2nc3ccccc3[nH]2)n1)N1CCC2(CCN(C(=O)c3nccc(Nc4ccccc4)n3)C2)C1 [Embodiment L-66, (7-(6-(1H-benzo[d]imidazol-2-yl)picolinoyl)-2,7-diazaspiro[4.4]non-2-yl)(4-(phenylamino)pyrimidin-2-yl)methanone] | 
22 | 21.7 | 6.1 | O=C(c1cccc(-c2nc3ccccc3[nH]2)n1)N1CC2CN(C(=O)c3ccc4ccccc4n3)CC2C1 [Embodiment L-69, (5-(6-(1H-benzo[d]imidazol-2-yl)picolinoyl)hexahydropyrrolo[3,4-c]pyrrol-2(1H)-yl)(quinolin-2-yl)methanone] | 
23 | 40.6 | 5.9 | Cc1[nH]c2ccccc2c1C(=O)N1CC2CN(C(=O)c3cccc(-c4nc5ccccc5[nH]4)n3)CC2C1 [Embodiment L-71, (5-(6-(1H-benzo[d]imidazol-2-yl)picolinoyl)hexahydropyrrolo[3,4-c]pyrrol-2(1H)-yl)(2-methyl-1H-indol-3-yl)methanone] | 

Row | SMILES | Kd [µM] | Rmax (RU) | binding activity compared with positive reference compound BT-11
24 | O=C(NC1C2CN(C(=O)c3cccc(-c4nc5ccccc5[nH]4)n3)CC21)c1ccnc(N2CCOCC2)n1 [Embodiment L-14, N-(3-(6-(1H-benzo[d]imidazol-2-yl)picolinoyl)-3-azabicyclo[3.1.0]hexan-6-yl)-2-morpholinopyrimidine-4-carboxamide] | 21.1 | 7.1 | 
25 | O=C(NC1C2CN(C(=O)c3cccc(-c4nc5ccccc5[nH]4)n3)CC21)c1ccnc(Nc2ccccc2)n1 [Embodiment L-23, N-(3-(6-(1H-benzo[d]imidazol-2-yl)picolinoyl)-3-azabicyclo[3.1.0]hexan-6-yl)-2-(phenylamino)pyrimidine-4-carboxamide] | 10.3 | 7.5 | 
